Measured values taken from ChEMBL document CHEMBL1201862, “PubChem BioAssay data set” (2004).
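Grown in 96-well plates, cells were treated for 48 hours with each compound at five concentrations. Insufficient inhibition: endpoint recorded as highest concentration tested. GI50 = concentration required for 50% inhibition of growth.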 The source made the active and inactive calls. Cut-off read from the data, not from the text of the source: active = GI50 up to about 1.1 µM and inactive = higher.

Key:
Test in all cases: growth of human tumour cells (NCI), 48 h
[1] = system: SK-MEL-28
[2] = system: HCT-15
[3] = system: MDA-MB-435
[4] = system: HCC 2998
[5] = system: OVCAR-4
[6] = system: HOP-92
[7] = system: HOP-62
[8] = system: CAKI-1
[9] = system: DU-145
[10] = system: SF-268
[11] = system: UACC-257
[12] = system: OVCAR-3
[13] = system: SF-295
[14] = system: ACHN
[15] = system: NCI-H226
[16] = system: OVCAR-5
[17] = system: SNB-19
[18] = system: SNB-75
[19] = system: COLO 205
[20] = system: SF-539

SMILES	GI50 [1]	GI50 [2]	GI50 [3]	GI50 [4]	GI50 [5]	GI50 [6]	GI50 [7]	GI50 [8]	GI50 [9]	GI50 [10]	GI50 [11]	GI50 [12]	GI50 [13]	GI50 [14]	GI50 [15]	GI50 [16]	GI50 [17]	GI50 [18]	GI50 [19]	GI50 [20]
C[C@]12CC(c3ccccc3O1)C(C(=O)NC13CC4CC(CC(C4)C1)C3)C(=O)N2 (some centres undefined)	28.3 µM (inactive)	25.9 µM	26.2 µM (inactive)	29 µM (inactive)	52.6 µM (inactive)	20.7 µM (inactive)	44.3 µM (inactive)	38.6 µM (inactive)	38.4 µM (inactive)	32.1 µM (inactive)	35.7 µM (inactive)	44.9 µM (inactive)	44.8 µM (inactive)	34.1 µM (inactive)	23.6 µM (inactive)	19.5 µM (inactive)	23.4 µM (inactive)	27.5 µM (inactive)	15.6 µM (inactive)	–
N=c1oc2cc(O)ccc2cc1C(=O)Nc1cccc2ccccc12	6.34 µM (inactive)	2.67 µM	1.97 µM (inactive)	3.71 µM (inactive)	7.01 µM (inactive)	4.31 µM (inactive)	11.3 µM (inactive)	5.97 µM (inactive)	6.53 µM (inactive)	3.61 µM (inactive)	9.08 µM (inactive)	7.13 µM (inactive)	5.18 µM (inactive)	3.99 µM (inactive)	5.92 µM (inactive)	13.5 µM (inactive)	4.68 µM (inactive)	3.54 µM (inactive)	15.2 µM (inactive)	–
CC(C)NC(=O)CN1CCN(C2=CC(=O)c3c(O)ccc(O)c3C2=O)CC1	17.1 µM (inactive)	8.75 µM	1.93 µM (inactive)	16.7 µM (inactive)	7.45 µM (inactive)	21.9 µM (inactive)	18.2 µM (inactive)	26.2 µM (inactive)	16.1 µM (inactive)	24.3 µM (inactive)	7.18 µM (inactive)	2.58 µM (inactive)	15.6 µM (inactive)	21.2 µM (inactive)	31.4 µM (inactive)	18.7 µM (inactive)	18.7 µM (inactive)	18.2 µM (inactive)	3 µM (inactive)	16.7 µM (inactive)
COc1ccc2nc3cc(Cl)ccc3c(Nc3ccc(O)c(CN4CCN(C)CC4)c3)c2c1	1.92 µM (inactive)	2.31 µM	1.62 µM (inactive)	1.19 µM (inactive)	1.65 µM (inactive)	1.72 µM (inactive)	2.06 µM (inactive)	1.92 µM (inactive)	1.9 µM (inactive)	2.28 µM (inactive)	1.86 µM (inactive)	1.92 µM (inactive)	1.91 µM (inactive)	1.64 µM (inactive)	20.5 µM (inactive)	2.41 µM (inactive)	2.43 µM (inactive)	1.62 µM (inactive)	1.63 µM (inactive)	1.79 µM (inactive)
COC(=O)C1=NN2c3ccccc3C(=O)OCCC2C1 (centres undefined)	> 100 µM (inactive)	> 100 µM	> 100 µM (inactive)	> 100 µM (inactive)	> 100 µM (inactive)	46.5 µM (inactive)	> 100 µM (inactive)	> 100 µM (inactive)	> 100 µM (inactive)	> 100 µM (inactive)	> 100 µM (inactive)	> 100 µM (inactive)	> 100 µM (inactive)	> 100 µM (inactive)	> 100 µM (inactive)	> 100 µM (inactive)	–	> 100 µM (inactive)	> 100 µM (inactive)	> 100 µM (inactive)
Clc1cc(Cl)ncn1	> 100 µM (inactive)	> 100 µM	> 100 µM (inactive)	> 100 µM (inactive)	> 100 µM (inactive)	> 100 µM (inactive)	> 100 µM (inactive)	> 100 µM (inactive)	> 100 µM (inactive)	> 100 µM (inactive)	–	> 100 µM (inactive)	> 100 µM (inactive)	> 100 µM (inactive)	> 100 µM (inactive)	> 100 µM (inactive)	> 100 µM (inactive)	> 100 µM (inactive)	> 100 µM (inactive)	> 100 µM (inactive)
c1ccc(/N=C2/SC(c3ccccc3)(c3ccccc3)c3ccccc32)cc1	> 100 µM (inactive)	> 100 µM	> 100 µM (inactive)	> 100 µM (inactive)	> 100 µM (inactive)	> 100 µM (inactive)	> 100 µM (inactive)	> 100 µM (inactive)	> 100 µM (inactive)	> 100 µM (inactive)	> 100 µM (inactive)	> 100 µM (inactive)	> 100 µM (inactive)	> 100 µM (inactive)	> 100 µM (inactive)	> 100 µM (inactive)	> 100 µM (inactive)	> 100 µM (inactive)	> 100 µM (inactive)	> 100 µM (inactive)
COc1ccc(C2CC(C)(O)Oc3cc4c(cc32)OCO4)cc1 (centres undefined)	45.6 µM (inactive)	23.8 µM	7.14 µM (inactive)	47.6 µM (inactive)	38.6 µM (inactive)	28.4 µM (inactive)	40.1 µM (inactive)	41.7 µM (inactive)	61.2 µM (inactive)	35.8 µM (inactive)	32.4 µM (inactive)	32.3 µM (inactive)	30.8 µM (inactive)	43.2 µM (inactive)	53.7 µM (inactive)	55.7 µM (inactive)	38.4 µM (inactive)	29.7 µM (inactive)	19.7 µM (inactive)	38.9 µM (inactive)
Cc1nnc(SCc2nc(C#N)c(C#N)nc2CSc2nnc(C)s2)s1	26.9 µM (inactive)	7.66 µM	8.63 µM (inactive)	16.5 µM (inactive)	15.2 µM (inactive)	12.9 µM (inactive)	19.1 µM (inactive)	5.74 µM (inactive)	14.5 µM (inactive)	17.9 µM (inactive)	13.8 µM (inactive)	6.78 µM (inactive)	39.4 µM (inactive)	8.53 µM (inactive)	25.1 µM (inactive)	18.1 µM (inactive)	47.5 µM (inactive)	19.8 µM (inactive)	11.5 µM (inactive)	19.6 µM (inactive)
O=C(/C=C/c1ccc(C(F)(F)F)cc1)c1c([O-])on[n+]1-c1ccccc1	1.61 µM (inactive)	1.31 µM	1.86 µM (inactive)	1.98 µM (inactive)	5.33 µM (inactive)	1.6 µM (inactive)	3.95 µM (inactive)	0.288 µM (active)	2.21 µM (inactive)	–	2.12 µM (inactive)	1.58 µM (inactive)	3.6 µM (inactive)	1.51 µM (inactive)	6 µM (inactive)	3.12 µM (inactive)	3.12 µM (inactive)	2.07 µM (inactive)	1.75 µM (inactive)	2.03 µM (inactive)
CCCCCCCCCCC/C=C(/C(=O)CCCO[Si](C)(C)C(C)(C)C)C(=O)OC	> 100 µM (inactive)	> 100 µM	> 100 µM (inactive)	> 100 µM (inactive)	> 100 µM (inactive)	> 100 µM (inactive)	> 100 µM (inactive)	> 100 µM (inactive)	> 100 µM (inactive)	> 100 µM (inactive)	> 100 µM (inactive)	> 100 µM (inactive)	> 100 µM (inactive)	> 100 µM (inactive)	> 100 µM (inactive)	> 100 µM (inactive)	> 100 µM (inactive)	> 100 µM (inactive)	> 100 µM (inactive)	> 100 µM (inactive)
NC1CC(Cl)c2c(Cl)sc(Cl)c21 (centres undefined)	> 100 µM (inactive)	> 100 µM	> 100 µM (inactive)	53.2 µM (inactive)	> 100 µM (inactive)	> 100 µM (inactive)	> 100 µM (inactive)	> 100 µM (inactive)	> 100 µM (inactive)	> 100 µM (inactive)	> 100 µM (inactive)	> 100 µM (inactive)	> 100 µM (inactive)	> 100 µM (inactive)	> 100 µM (inactive)	> 100 µM (inactive)	–	> 100 µM (inactive)	> 100 µM (inactive)	> 100 µM (inactive)
c1ccc(NNN2NC(c3ccccc3)C2c2ccccc2)cc1 (centres undefined)	> 100 µM (inactive)	> 100 µM	> 100 µM (inactive)	> 100 µM (inactive)	86.1 µM (inactive)	> 100 µM (inactive)	–	> 100 µM (inactive)	> 100 µM (inactive)	> 100 µM (inactive)	87.9 µM (inactive)	> 100 µM (inactive)	> 100 µM (inactive)	> 100 µM (inactive)	> 100 µM (inactive)	> 100 µM (inactive)	> 100 µM (inactive)	> 100 µM (inactive)	> 100 µM (inactive)	> 100 µM (inactive)
COC(=O)[C@@H]1CCc2nc3ccccc3c(=O)n21	> 100 µM (inactive)	> 100 µM	> 100 µM (inactive)	> 100 µM (inactive)	> 100 µM (inactive)	> 100 µM (inactive)	> 100 µM (inactive)	> 100 µM (inactive)	> 100 µM (inactive)	> 100 µM (inactive)	> 100 µM (inactive)	> 100 µM (inactive)	> 100 µM (inactive)	> 100 µM (inactive)	93.1 µM (inactive)	> 100 µM (inactive)	–	> 100 µM (inactive)	> 100 µM (inactive)	–
OC(c1ccc(F)cc1)C(F)(F)c1nc2ccccc2o1 (centres undefined)	> 100 µM (inactive)	> 100 µM	> 100 µM (inactive)	> 100 µM (inactive)	> 100 µM (inactive)	21.7 µM (inactive)	62.5 µM (inactive)	87.5 µM (inactive)	47 µM (inactive)	38.9 µM (inactive)	57.4 µM (inactive)	–	> 100 µM (inactive)	> 100 µM (inactive)	> 100 µM (inactive)	–	> 100 µM (inactive)	21.6 µM (inactive)	> 100 µM (inactive)	> 100 µM (inactive)
